# Target: T1, PGI2 receptor (Homo sapiens, UniProt P43119)
# T1 construct: host or cells: thawed 'PGI2 cell' suspension
# Experiment: PGI2 cAMP cell assay in vitro (HTRF cAMP)
# Format: cell-based
# Conditions: cells in vitro
# Protocol: PGI2 cAMP Cell Assay In Vitro:
# A series of cells were placed in a 37° C. water bath for rapid thawing, and the cell suspension was transferred to a 15 mL centrifuge tube containing 10 mL HBSS, and mixed uniformly. The cells were centrifuged at 1000 rpm for 5 minutes at room temperature. The supernatant was removed after centrifugation.
# The centrifuge tube was tapped gently to suspend the cells after centrifugation, then the cells were re-suspended with 10 mL HBSS (Hanks buffered saline solution) and mixed uniformly by pipetting up and down. The cells were counted by Vi-cell. The cells were centrifuged for the second time at 1000 rpm for 5 minutes. The cells were re-suspended by experimental buffer to reach a cell concentration of 1.5×10^5/mL.
# The samples were diluted with the Bravo automated liquid handling platform to make the initial concentration of the sample reach 2 mM and 5-fold serial dilution at 10 points. The control sample was diluted with Bravo to make the initial concentration of the sample reach 2 mM and 5-fold serial dilution at 10 points.
# 50 nL DMSO or sample to be tested was transferred to PE384-well OptiPlate by Echo. The cell suspension was transferred to the testing plate by electric pipette, 10 μL cells/well. The testing plate was centrifuged at 1000 rpm […]. The testing plate was incubated at room temperature for 60 minutes. Two kinds of test reagents were added to the testing plate, 5 µL/well. The testing plate was centrifuged at 1000 rpm for 1 minute. The experimental plate was sealed with Top Seal-A film and incubated at room temperature for 60 minutes. TopSeal-A was removed and the value was read on EnVision.
# T1 sequence (P43119 whole entry, species assumed): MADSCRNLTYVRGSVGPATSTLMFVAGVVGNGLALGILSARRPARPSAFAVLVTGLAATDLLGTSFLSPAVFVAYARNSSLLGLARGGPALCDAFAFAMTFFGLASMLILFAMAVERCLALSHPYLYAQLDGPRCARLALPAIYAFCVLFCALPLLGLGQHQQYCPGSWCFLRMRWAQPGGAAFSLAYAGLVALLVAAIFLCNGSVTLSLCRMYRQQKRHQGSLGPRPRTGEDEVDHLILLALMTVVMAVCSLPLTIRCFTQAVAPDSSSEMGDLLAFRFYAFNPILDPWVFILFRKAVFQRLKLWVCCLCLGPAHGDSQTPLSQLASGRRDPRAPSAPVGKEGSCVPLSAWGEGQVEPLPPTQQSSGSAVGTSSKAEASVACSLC
row,SMILES,EC50 [nM]
1,O=C(O)COCC1(F)CCN(c2cncc(N(c3ccc(F)cc3)c3ccccn3)n2)CC1 [Compound 40],3.2
2,O=C(O)COCC1CCN(c2ccnc(N(c3ccccc3)c3ccccc3)n2)CC1 [Compound 16],23.5
3,COc1ccc(N(c2ccccc2)c2cncc(N3CCC(F)(COCC(=O)O)CC3)n2)cc1 [Compound 23],1.1
4,O=C(O)COCC1(F)CCN(c2cncc(N(c3ccccc3)c3ccc(F)cn3)n2)CC1 [Compound 32],1.41
5,O=C(O)COCC1CCN(c2cncc(N(c3ccccc3)c3cc(F)cc(F)c3)n2)CC1 [Compound 11],123
6,O=C(O)COCC1CCN(c2cncc(N(c3ccccc3)c3ccccc3)n2)CC1 [Compound 4],2.99
7,COC(c1ccccc1)(c1ccccc1)c1cncc(N2CCC(F)(COCC(=O)O)CC2)n1 [Compound 51],322
8,O=C(O)COCC1(F)CCN(c2cncc(N(c3ccccc3)c3cccc(F)n3)n2)CC1 [Compound 31],1.61
9,O=C(O)COCC1CCN(c2cncc(N(c3ccccc3)c3ccc(F)cc3)n2)CC1 [Compound 3],2.09
10,CS(=O)(=O)NC(=O)COCC1(F)CCN(c2cncc(N(c3ccccc3)c3ccc(F)cc3)n2)CC1 [Compound 36],4.97
11,COc1ccc(N(c2ccccc2)c2cncc(N3CCC(F)(COCC(=O)O)CC3)n2)nc1 [Compound 34],1.9
12,O=C(O)COCC1CCN(c2cncc(N(c3ccccc3)c3cccc(F)c3)n2)CC1 [Compound 9],12.8
13,O=C(O)COCC1(F)CCN(c2cncc(N(c3ccc(Cl)cc3)c3ccccn3)n2)CC1 [Compound 41],2.94
14,O=C(O)COCC1CCN(c2cncc(N(c3ccccc3)c3cccc(Cl)c3)n2)CC1 [Compound 12],4.84
15,O=C(O)COCC1(F)CCN(c2cncc(N(c3ccccc3)c3ccc(OC(F)F)cc3)n2)CC1 [Compound 20],1.65
16,O=C(O)COCC1(F)CCN(c2cncc(C(c3ccccc3)c3ccccc3)n2)CC1 [Compound 50],5.36
17,O=C(O)COCC1(F)CCN(c2cncc(N(c3ccccc3)c3ccccn3)n2)CC1 [Compound 30],3.26
18,O=C(O)COCC1CCN(c2cncc(N(c3ccccc3)c3cccc(OC(F)F)c3)n2)CC1 [Compound 14],9.65
19,O=C(O)COCC1(F)CCN(c2cncc(N(c3ccccc3)c3ccc(Cl)cc3)n2)CC1 [Compound 25],0.8
20,COc1ccc(N(c2ccc(Cl)cc2)c2cncc(N3CCC(F)(COCC(=O)O)CC3)n2)nc1 [Compound 38],459
21,O=C(O)COCC1CCN(c2cccc(N(c3ccccc3)c3ccccc3)n2)CC1 [Compound 15],> 2000
22,O=C(O)COCC1(F)CCN(c2cncc(N(c3ccccc3)c3cccc(OC(F)F)c3)n2)CC1 [Compound 21],3
23,O=C(O)COCC1(F)CCN(c2cncc(N(c3ccccc3)c3ccc(OC(F)(F)F)cc3)n2)CC1 [Compound 26],3.73
24,COc1cccc(N(c2ccc(F)cn2)c2cncc(N3CCC(F)(COCC(=O)O)CC3)n2)c1 [Compound 29],4.19
25,O=C(O)COCC1CCN(c2cncc(N(c3ccccc3)c3cccc(OC(F)(F)F)c3)n2)CC1 [Compound 8],38
26,O=C(O)COC[C@H]1CC[C@H](c2cncc(N(c3ccccc3)c3ccccc3)n2)CC1 [Compound 48b],3.72

row,SMILES,EC50 [nM]
1,O=C(O)COC[C@H]1CC[C@@H](c2cncc(N(c3ccccc3)c3ccccc3)n2)CC1 [Compound 48a],18
2,O=C(O)COCC1(F)CCN(c2cncc(N(c3ccccc3)C3CCCCC3)n2)CC1 [Compound 37],34.2
3,O=C(O)COCC1(F)CCN(c2cncc(N(c3ccc(Cl)cc3)c3ccc(F)cn3)n2)CC1 [Compound 39],> 300
4,Cc1ccc(N(c2ccccc2)c2cncc(N3CCC(F)(COCC(=O)O)CC3)n2)nc1 [Compound 45],1.55
5,COc1ccc(N(c2ccccn2)c2cncc(N3CCC(F)(COCC(=O)O)CC3)n2)cc1 [Compound 42],2.63
6,O=C(O)COCC1CC=C(c2cncc(N(c3ccccc3)c3ccc(Cl)cc3)n2)CC1 (stereo not shown) [Compound 47],40.1
7,O=C(O)COCC1(F)CCN(c2cncc(N(c3ccccc3)c3ccc(F)cc3)n2)CC1 [Compound 35],0.43
8,O=C(O)COCC1(F)CCN(c2cncc(N(c3ccccc3)c3cc(Cl)ccn3)n2)CC1 [Compound 44],1.98
9,O=C(O)COCC1CCN(c2cncc(N(c3ccccc3)c3ccc(Cl)cc3)n2)CC1 [Compound 1],2.02
10,CCOC(=O)COCC1(F)CCN(c2cncc(N(c3ccccc3)c3ccccc3)n2)CC1 [Compound 19],6.11
11,COc1cccc(N(c2ccccc2)c2cncc(N3CCC(F)(COCC(=O)O)CC3)n2)c1 [Compound 24],0.41
12,O=C(O)COCC1CCN(c2nccc(N(c3ccccc3)c3ccc(Cl)cc3)n2)CC1 [Compound 2],2990
13,COc1cccc(N(c2ccccc2)c2cncc(N3CCC(COCC(=O)O)CC3)n2)c1 [Compound 7],2.12
14,O=C(O)COCC1CCN(c2cncc(N(c3ccccc3)c3ccc(OC(F)(F)F)cc3)n2)CC1 [Compound 6],3.55
15,O=C(O)COCC1(F)CCN(c2cncc(C(O)(c3ccccc3)c3ccccc3)n2)CC1 [Compound 49],81
16,CS(=O)(=O)NC(=O)COCC1(F)CCN(c2cncc(N(c3ccccc3)c3ccccc3)n2)CC1 [Compound 18],79.9
17,O=C(O)COCC1(F)CCN(c2cncc(N(c3ccccc3)c3ccc(Cl)cn3)n2)CC1 [Compound 43],1.07
18,O=C(O)COCC1(F)CCN(c2cncc(N(c3ccccc3)c3nccs3)n2)CC1 [Compound 46],20.1
19,O=C(O)COCC1CCN(c2cncc(N(c3ccccc3)c3ccc(F)c(F)c3)n2)CC1 [Compound 10],10.2
20,O=C(O)COCC1(F)CCN(c2cncc(N(c3cccc(F)c3)c3ccccn3)n2)CC1 [Compound 27],6.74
21,CS(=O)(=O)NC(=O)COCC1(F)CCN(c2cncc(N(c3ccccc3)c3ccc(F)cn3)n2)CC1 [Compound 33],118
22,COc1ccc(N(c2ccccc2)c2cncc(N3CCC(COCC(=O)O)CC3)n2)cc1 [Compound 5],3.74
23,O=C(O)COCC1(F)CCN(c2cncc(N(c3ccccc3)c3cccc(F)c3)n2)CC1 [Compound 22],0.22
24,O=C(O)COCC1CCN(c2cncc(N(c3ccccc3)c3ccc(OC(F)F)cc3)n2)CC1 [Compound 13],4.17
25,O=C(O)COCC1(F)CCN(c2cncc(N(c3ccccc3)c3ccccc3)n2)CC1 [Compound 17],0.29
26,O=C(O)COCC1(F)CCN(c2cncc(N(c3cccc(Cl)c3)c3ccccn3)n2)CC1 [Compound 28],2.17

# From patent US11299475B2, “Prostacyclin receptor agonist” (MEDSHINE DISCOVERY INC., priority 2018, dated 2022)
